Experimental data reported in ChEMBL document CHEMBL1125933, “Arocalciferols: synthesis and biological evaluation of aromatic side-chain analogues of 1 alpha,25-dihydroxyvitamin D3(1a)” (1991).

Tests used:
Homo sapiens [1] = species: Homo sapiens; assay: Inhibitory effect (10e-6 M) on the 25-OH-D3-1-hydroxylase activity; format: functional
Homo sapiens [2] = species: Homo sapiens; assay: 25-OH-D3-1-hydroxylase activity (10e-6 M) was measured as %control; format: functional
Gallus gallus [3] = assay: Effect on bone calcium mobilization was measured in vivo, in the vitamin D deficient chick; format: functional, Bone element; set-up: reference not given here
Gallus gallus [4] = assay: Effect on intestinal calcium absorption was measured in vivo, in the vitamin D deficient chick; format: functional; set-up: reference not given here
[5] = molecular target: T1, Vitamin D-binding protein (Homo sapiens) (UniProt P02774); assay: Relative competitive index for binding to vitamin D binding protein
T1 sequence (whole entry): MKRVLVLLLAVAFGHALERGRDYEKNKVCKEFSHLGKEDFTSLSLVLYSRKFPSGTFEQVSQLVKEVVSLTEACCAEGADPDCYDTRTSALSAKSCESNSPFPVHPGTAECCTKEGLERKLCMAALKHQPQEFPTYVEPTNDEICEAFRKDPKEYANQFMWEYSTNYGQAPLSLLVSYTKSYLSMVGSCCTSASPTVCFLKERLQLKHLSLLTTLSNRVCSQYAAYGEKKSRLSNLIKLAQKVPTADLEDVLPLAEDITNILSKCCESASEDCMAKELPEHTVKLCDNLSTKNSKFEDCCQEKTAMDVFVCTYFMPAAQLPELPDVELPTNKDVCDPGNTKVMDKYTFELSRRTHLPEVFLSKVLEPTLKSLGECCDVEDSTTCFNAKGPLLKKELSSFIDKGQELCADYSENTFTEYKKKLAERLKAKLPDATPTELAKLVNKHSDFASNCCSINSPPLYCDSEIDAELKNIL

[6] = test system: Vitamin D3 receptor (Gallus gallus); assay: Relative competitive index values for binding to 1,25(OH)2D3 receptor of chick intestine
[7] = molecular target: Vitamin D3 receptor (Homo sapiens) (UniProt P11473); assay: Relative competitive index values for binding to 1,25(OH)2D3 receptor of human HL-60 cells
Homo sapiens [8] = species: Homo sapiens; assay: Inhibitory effect (10e-6 M) on the 25-hydroxyvitamin D3-1-hydroxylase activity
Homo sapiens [9] = species: Homo sapiens; assay: 25-hydroxyvitamin D3-1-hydroxylase activity (10e-6 M) was measured as %control
[10] = molecular target: Vitamin D3 receptor (Homo sapiens) (UniProt P11473); assay: Relative competitive index values for binding to 1,25(OH)2D3 receptor of human HL-60 cells; remark: listed apart in the source

| SMILES | Activity (Homo sapiens [1]) [pmol/10 min] | Control (Homo sapiens [2]) [%] | Ratio (Gallus gallus [3]) | Ratio (Gallus gallus [4]) | RCI [5] | RCI [6] | RCI [7] | Activity (Homo sapiens [8]) [pmol/10 min] | Control (Homo sapiens [9]) [%] | RCI [10] |
| --- | --- | --- | --- | --- | --- | --- | --- | --- | --- | --- |
| C=C1/C(=C\C=C2/CCC[C@]3(C)[C@@H]([C@H](C)Cc4ccc(O)cc4)CC[C@@H]23)C[C@@H](O)C[C@@H]1O | 18.1 | 104 | 0.08 | 0.04 | 1980 | 5 | 12 |  |  |  |
| C=C1/C(=C\C=C2/CCC[C@]3(C)[C@@H]([C@H](C)Cc4cccc(O)c4)CC[C@@H]23)C[C@@H](O)C[C@@H]1O |  |  | 1 | 0.28 | 980 | 28 |  | 16.9 | 97 | 27 |
| C=C1/C(=C\C=C2/CCC[C@]3(C)[C@@H]([C@H](C)Cc4cccc(C(C)(C)O)c4)CC[C@@H]23)C[C@@H](O)C[C@@H]1O |  |  | 7.7 | 30.7 | 2 | 62 |  | 17.2 | 99 | 32 |
| C=C1/C(=C\C=C2/CCC[C@]3(C)[C@@H]([C@H](C)Cc4cccc(C)c4)CC[C@@H]23)C[C@@H](O)C[C@@H]1O |  |  | 0.06 | 0.31 |  | 1.4 |  | 16.7 | 96 | 3.5 |
| C=C1/C(=C\C=C2/CCC[C@]3(C)[C@@H]([C@H](C)CCCC(C)(C)O)CC[C@@H]23)C[C@@H](O)C[C@@H]1O |  |  |  |  |  |  |  | 2.1 | 12 |  |
